Experimental data as given in PubChem BioAssay (NCI).
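Compound exposure: 48 hours, 5 concentrations, 96-well plates. TGI: concentration producing complete growth inhibition.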

Experiments:
Assay in all cases: NCI anticancer screen, dose series, 48 h
[1] = system: OVCAR-5 ovarian
[2] = system: CCRF-CEM leukemia
[3] = system: HCT-116 colon
[4] = system: NCI/ADR-RES ovarian
[5] = system: MCF7 breast
[6] = system: M19-MEL melanoma
[7] = system: MOLT-4 leukemia
[8] = system: ACHN renal
[9] = system: SNB-78 CNS
[10] = system: K-562 leukemia
[11] = system: SK-MEL-5 melanoma
[12] = system: IGROV1 ovarian
[13] = system: DMS 273 small cell lung
[14] = system: SW-620 colon
[15] = system: HOP-62 NSCLC
[16] = system: HOP-18 NSCLC
[17] = system: SNB-19 CNS
[18] = system: MDA-MB-435
[19] = system: OVCAR-4 ovarian
[20] = system: SK-OV-3 ovarian
[21] = system: EKVX NSCLC
[22] = system: HL-60(TB) leukemia
[23] = system: NCI-H23 lung
[24] = system: SR leukemia
[25] = system: LOX IMVI melanoma
[26] = system: SN12C renal
[27] = system: HT29 colon
[28] = system: DU-145 prostate
[29] = system: 786-0 renal
[30] = system: HCT-15 colon
[31] = system: RXF-631 renal
[32] = system: TK-10 renal
[33] = system: HCC-2998 colon
[34] = system: SF-539 CNS
[35] = system: SF-295 CNS
[36] = system: SNB-75 CNS
[37] = system: MDA-N
[38] = system: MDA-MB-231 breast
[39] = system: MALME-3M melanoma
[40] = system: HOP-92 NSCLC
[41] = system: OVCAR-8 ovarian
[42] = system: NCI-H460 lung
[43] = system: M14 melanoma
[44] = system: A549 NSCLC
[45] = system: A498 renal
[46] = system: CAKI-1 renal
[47] = system: KM20L2 colon
[48] = system: BT-549 breast
[49] = system: UO-31 renal
[50] = system: KM12 colon
[51] = system: COLO 205 colon
[52] = system: LXFL 529 NSCLC
[53] = system: UACC-62 melanoma
[54] = system: SF-268 CNS
[55] = system: NCI-H226 lung
[56] = system: T-47D breast
[57] = system: UACC-257 melanoma
[58] = system: OVCAR-3 ovarian
[59] = system: DLD-1 colon
[60] = system: DMS 114 small cell lung
[61] = system: HS 578T breast
[62] = system: NCI-H522 lung
[63] = system: U251 CNS
[64] = system: RPMI-8226 leukemia
[65] = system: XF 498 CNS
[66] = system: SK-MEL-28 melanoma
[67] = system: SK-MEL-2 melanoma

S=c1nc(Oc2ccc(Cl)c(Cl)c2)[nH]c(=S)[nH]1 was tested, and the TGI [1] was > 100 µM, the TGI [2] was > 87.5 µM and the TGI [3] was > 60.9 µM. For the same molecule, the TGI [4] was > 100 µM, the TGI [5] was > 100 µM and the TGI [6] was 56.5 µM. For the same molecule, the TGI [7] was > 69.6 µM, the TGI [8] was > 82.2 µM and the TGI [9] was > 100 µM. For the same molecule, the TGI [10] was > 31.6 µM, the TGI [11] was > 55.6 µM and the TGI [12] was > 92.3 µM. For the same molecule, the TGI [13] was 50 µM, the TGI [14] was > 100 µM and the TGI [15] was > 67.6 µM. The TGI [16] was > 100 µM, the TGI [17] was > 100 µM and the TGI [18] was > 100 µM. For the same molecule, the TGI [19] was > 82.2 µM, the TGI [20] was > 100 µM and the TGI [21] was > 93.9 µM. The TGI [22] was > 100 µM, the TGI [23] was > 63.3 µM and the TGI [24] was > 100 µM. The TGI [25] was 37.8 µM, the TGI [26] was > 95.6 µM and the TGI [27] was > 89.7 µM. For the same molecule, the TGI [28] was > 100 µM, the TGI [29] was > 100 µM and the TGI [30] was > 100 µM. For the same molecule, the TGI [31] was 32.8 µM, the TGI [32] was > 100 µM and the TGI [33] was 37.9 µM. The TGI [34] was > 73.1 µM, the TGI [35] was > 100 µM and the TGI [36] was > 84.5 µM. For the same molecule, the TGI [37] was > 100 µM, the TGI [38] was > 100 µM and the TGI [39] was > 71.3 µM. For the same molecule, the TGI [40] was 60.9 µM, the TGI [41] was 97.4 µM and the TGI [42] was 64.9 µM. The TGI [43] was > 100 µM, the TGI [44] was 61.4 µM and the TGI [45] was 77.6 µM. For the same molecule, the TGI [46] was > 100 µM, the TGI [47] was > 100 µM and the TGI [48] was > 100 µM. The TGI [49] was 71.2 µM, the TGI [50] was 33.6 µM and the TGI [51] was > 60.4 µM. The TGI [52] was > 100 µM, the TGI [53] was > 60.3 µM and the TGI [54] was > 81.8 µM. The TGI [55] was > 77.6 µM, the TGI [56] was 59.6 µM and the TGI [57] was > 80 µM. For the same molecule, the TGI [58] was > 100 µM, the TGI [59] was 88.4 µM and the TGI [60] was 48.2 µM. The TGI [61] was > 100 µM, the TGI [62] was 38.2 µM and the TGI [63] was 99.4 µM. The TGI [64] was 51.5 µM, the TGI [65] was 65.6 µM and the TGI [66] was > 92.5 µM.

In the case of Cc1cc(O)c(C(=O)CC2(O)C(=O)Nc3c(Cl)cc(Cl)cc32)c(=O)o1 (configuration not stated), the TGI [1] is reported as > 100 µM, the TGI [2] is reported as > 100 µM and the TGI [3] is reported as > 100 µM. The TGI [6] was > 100 µM, the TGI [7] was > 100 µM and the TGI [8] was > 100 µM. The TGI [9] was > 100 µM, the TGI [10] was > 100 µM and the TGI [11] was > 100 µM. For the same molecule, the TGI [12] was > 100 µM, the TGI [13] was > 100 µM and the TGI [14] was > 100 µM. The TGI [15] was > 100 µM, the TGI [16] was > 100 µM and the TGI [17] was > 100 µM. For the same molecule, the TGI [19] was > 100 µM, the TGI [20] was > 100 µM and the TGI [21] was > 100 µM. The TGI [22] was > 100 µM, the TGI [23] was > 100 µM and the TGI [24] was > 100 µM. For the same molecule, the TGI [26] was > 100 µM, the TGI [27] was > 100 µM and the TGI [29] was > 100 µM. For the same molecule, the TGI [30] was > 100 µM, the TGI [31] was > 100 µM and the TGI [32] was > 100 µM. For the same molecule, the TGI [33] was > 100 µM, the TGI [34] was > 100 µM and the TGI [35] was > 100 µM. The TGI [36] was 95.1 µM, the TGI [39] was > 100 µM and the TGI [40] was > 100 µM. For the same molecule, the TGI [41] was > 100 µM, the TGI [42] was > 100 µM and the TGI [43] was > 100 µM. For the same molecule, the TGI [44] was > 100 µM, the TGI [45] was > 100 µM and the TGI [46] was > 100 µM. For the same molecule, the TGI [47] was > 100 µM, the TGI [49] was > 100 µM and the TGI [50] was > 100 µM. The TGI [51] was > 100 µM, the TGI [52] was > 100 µM and the TGI [53] was > 100 µM. The TGI [54] was > 100 µM, the TGI [55] was > 100 µM and the TGI [67] was > 100 µM. The TGI [57] was > 100 µM, the TGI [58] was > 100 µM and the TGI [59] was > 100 µM. The TGI [62] was > 100 µM, the TGI [63] was > 100 µM and the TGI [64] was > 100 µM. The TGI [65] was > 100 µM and the TGI [66] was > 100 µM.
